Converted amounts (≈) assume the structure as drawn.
System: Trypanosoma brucei rhodesiense
Assay: Antimicrobial activity against Trypanosoma brucei rhodesiense after 48 hrs by proliferation assay
Type: functional, organism-based
Settings: not given

Point of comparison: `CSc1ccc(OCc2nc(Br)c([N+](=O)[O-])n2C)cc1`, IC50 0.55 µM. Against it:
- Cc1cc(OCc2ncc([N+](=O)[O-])n2C)ccn1 — 49-fold higher, 27 µM
- CSc1ccc(OCc2nc(Cl)c([N+](=O)[O-])n2C)cc1 — 2.2-fold lower, 0.25 µM
- CSc1ccc(OCc2nc(S(=O)(=O)O)c([N+](=O)[O-])n2C)cc1 — within 1.5-fold, 0.37 µM
- CSc1ccc(OCc2nc([N+](=O)[O-])cn2C)cc1 — higher, > 30 µM
- Cn1c([N+](=O)[O-])cnc1COc1ccccc1 — higher, > 30 µM
- Cn1c([N+](=O)[O-])cnc1COc1ccncc1 — higher, > 30 µM
- CCc1cc(OCc2ncc([N+](=O)[O-])n2C)ccn1 — 45-fold higher, 25 µM
- Cn1c([N+](=O)[O-])cnc1COc1ccnc(N2CCNCC2)c1 — within 1.5-fold, 0.67 µM
- CSc1ccc(OCc2ncc(Cl)n2C)cc1 — higher, > 30 µM
- CSc1ccc(OCc2ncc(Br)n2C)cc1 — higher, > 30 µM
- CSc1ccc(OCc2ncc(S(=O)(=O)O)n2C)cc1 — higher, > 30 µM
- CSc1ccc(OCc2nc(Cl)c(Cl)n2C)cc1 — higher, > 30 µM
- CSc1ccc(OCc2nc(Br)c(Cl)n2C)cc1 — higher, > 30 µM
- CSc1ccc(OCc2nc(Br)c(Br)n2C)cc1 — higher, > 30 µM
- CSc1ccc(OCc2nc(Cl)c(Br)n2C)cc1 — higher, > 30 µM
- CSc1ccc(OCc2ncc([N+](=O)[O-])n2C)cc1 [FEXINIDAZOLE] — within 1.5-fold, 0.7 µM

System: not listed separately
Assay: Aqueous solubility of the compound at pH 7.5 at 25 degC
Type: physicochemical
Settings: not given

Point of comparison: `Cn1c([N+](=O)[O-])cnc1COc1ccccc1`, solubility 2.1 µM (≈ 0.49 µg/mL). Against it:
- Cc1cc(OCc2ncc([N+](=O)[O-])n2C)ccn1 — within 1.5-fold, 2.2 µM (≈ 0.546 µg/mL)
- CSc1ccc(OCc2nc(Cl)c([N+](=O)[O-])n2C)cc1 — 2.8-fold higher, 5.9 µM (≈ 1.85 µg/mL)
- CSc1ccc(OCc2nc(Br)c([N+](=O)[O-])n2C)cc1 — 2.8-fold higher, 5.8 µM (≈ 2.08 µg/mL)
- CSc1ccc(OCc2nc(S(=O)(=O)O)c([N+](=O)[O-])n2C)cc1 — 3.8-fold higher, 7.9 µM (≈ 2.84 µg/mL)
- CSc1ccc(OCc2nc([N+](=O)[O-])cn2C)cc1 — within 1.5-fold, 2.5 µM (≈ 0.698 µg/mL)
- Cn1c([N+](=O)[O-])cnc1COc1ccncc1 — within 1.5-fold, 2.7 µM (≈ 0.632 µg/mL)
- CCc1cc(OCc2ncc([N+](=O)[O-])n2C)ccn1 — within 1.5-fold, 3.1 µM (≈ 0.813 µg/mL)
- Cn1c([N+](=O)[O-])cnc1COc1ccnc(N2CCNCC2)c1 — 1.7-fold higher, 3.5 µM (≈ 1.11 µg/mL)
- CSc1ccc(OCc2ncc(Cl)n2C)cc1 — 4.1-fold higher, 8.7 µM (≈ 2.34 µg/mL)
- CSc1ccc(OCc2ncc(Br)n2C)cc1 — 4-fold higher, 8.5 µM (≈ 2.66 µg/mL)
- CSc1ccc(OCc2ncc(S(=O)(=O)O)n2C)cc1 — 3.9-fold higher, 8.2 µM (≈ 2.58 µg/mL)
- CSc1ccc(OCc2nc(Cl)c(Cl)n2C)cc1 — 12-fold higher, 25.5 µM (≈ 7.73 µg/mL)
- CSc1ccc(OCc2nc(Br)c(Cl)n2C)cc1 — 10-fold higher, 21.7 µM (≈ 7.54 µg/mL)
- CSc1ccc(OCc2nc(Br)c(Br)n2C)cc1 — 12-fold higher, 24.5 µM (≈ 9.61 µg/mL)
- CSc1ccc(OCc2nc(Cl)c(Br)n2C)cc1 — 12-fold higher, 24.9 µM (≈ 8.66 µg/mL)
- CSc1ccc(OCc2ncc([N+](=O)[O-])n2C)cc1 [FEXINIDAZOLE] — within 1.5-fold, 2.5 µM (≈ 0.698 µg/mL)

System: not listed separately
Assay: Aqueous solubility of the compound at pH 1.5 at 25 degC
Type: physicochemical
Settings: not given

Point of comparison: `CSc1ccc(OCc2ncc(Br)n2C)cc1`, solubility 18.5 µM (≈ 5.79 µg/mL). Against it:
- Cc1cc(OCc2ncc([N+](=O)[O-])n2C)ccn1 — 4.3-fold lower, 4.3 µM (≈ 1.07 µg/mL)
- CSc1ccc(OCc2nc(Cl)c([N+](=O)[O-])n2C)cc1 — within 1.5-fold, 17.1 µM (≈ 5.37 µg/mL)
- CSc1ccc(OCc2nc(Br)c([N+](=O)[O-])n2C)cc1 — within 1.5-fold, 16.7 µM (≈ 5.98 µg/mL)
- CSc1ccc(OCc2nc(S(=O)(=O)O)c([N+](=O)[O-])n2C)cc1 — within 1.5-fold, 22.8 µM (≈ 8.19 µg/mL)
- CSc1ccc(OCc2nc([N+](=O)[O-])cn2C)cc1 — 3.6-fold lower, 5.1 µM (≈ 1.42 µg/mL)
- Cn1c([N+](=O)[O-])cnc1COc1ccccc1 — 3.2-fold lower, 5.7 µM (≈ 1.33 µg/mL)
- Cn1c([N+](=O)[O-])cnc1COc1ccncc1 — 3.9-fold lower, 4.8 µM (≈ 1.12 µg/mL)
- CCc1cc(OCc2ncc([N+](=O)[O-])n2C)ccn1 — 3.1-fold lower, 5.9 µM (≈ 1.55 µg/mL)
- Cn1c([N+](=O)[O-])cnc1COc1ccnc(N2CCNCC2)c1 — 3.3-fold lower, 5.6 µM (≈ 1.78 µg/mL)
- CSc1ccc(OCc2ncc(Cl)n2C)cc1 — within 1.5-fold, 21 µM (≈ 5.64 µg/mL)
- CSc1ccc(OCc2ncc(S(=O)(=O)O)n2C)cc1 — within 1.5-fold, 25.4 µM (≈ 7.99 µg/mL)
- CSc1ccc(OCc2nc(Cl)c(Cl)n2C)cc1 — 2.5-fold higher, 45.5 µM (≈ 13.8 µg/mL)
- CSc1ccc(OCc2nc(Br)c(Cl)n2C)cc1 — 2-fold higher, 37.5 µM (≈ 13 µg/mL)
- CSc1ccc(OCc2nc(Br)c(Br)n2C)cc1 — 2.2-fold higher, 41.2 µM (≈ 16.2 µg/mL)
- CSc1ccc(OCc2nc(Cl)c(Br)n2C)cc1 — 1.9-fold higher, 35.8 µM (≈ 12.4 µg/mL)
- CSc1ccc(OCc2ncc([N+](=O)[O-])n2C)cc1 [FEXINIDAZOLE] — 3.4-fold lower, 5.5 µM (≈ 1.54 µg/mL)

System: L6
Assay: Cytotoxicity against rat L6 cells after 72 hrs by SRB assay
Type: cell-based
Settings: L6, 72 h

Point of comparison: `CSc1ccc(OCc2nc(Br)c([N+](=O)[O-])n2C)cc1`, IC50 0.8 µM. Against it:
- Cc1cc(OCc2ncc([N+](=O)[O-])n2C)ccn1 — 360-fold higher, 286 µM
- CSc1ccc(OCc2nc(Cl)c([N+](=O)[O-])n2C)cc1 — 4-fold lower, 0.2 µM
- CSc1ccc(OCc2nc(S(=O)(=O)O)c([N+](=O)[O-])n2C)cc1 — 4-fold lower, 0.2 µM
- CSc1ccc(OCc2nc([N+](=O)[O-])cn2C)cc1 — higher, > 400 µM
- Cn1c([N+](=O)[O-])cnc1COc1ccccc1 — higher, > 400 µM
- Cn1c([N+](=O)[O-])cnc1COc1ccncc1 — higher, > 400 µM
- CCc1cc(OCc2ncc([N+](=O)[O-])n2C)ccn1 — 300-fold higher, 243 µM
- Cn1c([N+](=O)[O-])cnc1COc1ccnc(N2CCNCC2)c1 — 320-fold higher, 255 µM
- CSc1ccc(OCc2ncc(Cl)n2C)cc1 — higher, > 400 µM
- CSc1ccc(OCc2ncc(Br)n2C)cc1 — higher, > 400 µM
- CSc1ccc(OCc2ncc(S(=O)(=O)O)n2C)cc1 — higher, > 400 µM
- CSc1ccc(OCc2nc(Cl)c(Cl)n2C)cc1 — higher, > 400 µM
- CSc1ccc(OCc2nc(Br)c(Cl)n2C)cc1 — higher, > 400 µM
- CSc1ccc(OCc2nc(Br)c(Br)n2C)cc1 — higher, > 400 µM
- CSc1ccc(OCc2nc(Cl)c(Br)n2C)cc1 — higher, > 400 µM
- CSc1ccc(OCc2ncc([N+](=O)[O-])n2C)cc1 [FEXINIDAZOLE] — 470-fold higher, 377 µM
